Legend:
GT3 HCV = experiment: 600 mg QD for 7 days in non-cirrhotic GT3 HCV-infected patients (Part D); type: in vivo, human; details: Part D, 600 mg/day, N = 6
Protocol: (§1) Doses were administered as the Compound 1-A salt base. The free base Compound 1 equivalent is often given in parenthesis.
(§2) Part C was a randomized, double-blind, placebo-controlled MAD study divided into three cohorts. […] The dose escalation only proceeded following satisfactory review of the data.
(§3) HCV-infected patients were treatment-naïve with HCV RNA ≥5 log 10 IU/mL. HCV RNA was quantified using COBAS® AmpliPrep TaqMAN® v2.0 with LLQ of 15 IU/mL. Plasma drug levels were measured using LC-MS/MS. […] Mean ages of enrolled subjects were 44, 39, and 56 years in the non-cirrhotic GT1b 600 mg dose cohort, non-cirrhotic GT3 cohort, and the cirrhotic cohort, respectively.

GT1, GT2, or GT3 HCV = experiment: 600 mg QD for 7 days in Child-Pugh A cirrhotic patients with GT1, GT2 or GT3 HCV (Part E); type: in vivo, human; details: Part E, 600 mg/day
Protocol: Doses were administered as the Compound 1-A salt base. The free base Compound 1 equivalent is often given in parenthesis. […]
as §3

GT1 HCV = experiment: Multiple dose study, 7 days QD, non-cirrhotic GT1 HCV-infected patients (Part C); type: in vivo, human; details: Part C, N = 6
Protocol: as §1, §2, §3

HCV NS5A = details: wide range of HCV genotypes and common clinical mutants; cited from earlier work

COC(=O)N[C@H](C(=O)N1CCC[C@H]1c1ncc(-c2cc(F)c3c(c2)O[C@@H](c2cnc(C4CC4)s2)n2c-3cc3cc(-c4cnc([C@@H]5CCCN5C(=O)[C@@H](NC(=O)OC)C(C)C)[nH]4)ccc32)[nH]1)C(C)C [Compound 2, dimethyl N,N′-([(6S)-6-(2-Cyclopropyl-1,3-thiazol-5-yl)-1-fluoro-6H-indolo[1,2-c][1,3]benzoxazine-3,10-diyl]bis{1H-imidazole-5,2-diyl-(2S)-pyrrolidine-2,1-diyl[(2S)-3-methyl-1-oxobutane-1,2-diyl]})dicarbamate]
Mean ± SD HCV RNA change from baseline to 24 h (GT3 HCV): 2.3 ± 0.3 log10 IU/mL
Mean ± SD HCV RNA maximum change from baseline (GT3 HCV): 4.5 ± 0.3 log10 IU/mL
Individual HCV RNA maximum change from baseline (GT1, GT2, or GT3 HCV; GT1b individual subjects, listed as Compd 2): GT1b: 4.0, log10 IU/mL
Individual HCV RNA maximum change from baseline (GT1, GT2, or GT3 HCV; GT2 individual subject): GT2: 4.8 log10 IU/mL
Mean ± SD HCV RNA change from baseline to 24 h (GT1, GT2, or GT3 HCV; N = 6): 2.4 ± 0.2 log10 IU/mL
Mean ± SD HCV RNA maximum change from baseline (GT1, GT2, or GT3 HCV; N = 6): 4.6 ± 0.5 log10 IU/mL
Mean ± SD HCV RNA change from baseline to 24 h (GT1 HCV; 150 mg/day): 1.2 ± 0.3 log10 IU/mL
Mean ± SD HCV RNA maximum change from baseline (GT1 HCV; 150 mg/day): 2.6 ± 1.1 log10 IU/mL
Mean ± SD HCV RNA change from baseline to 24 h (GT1 HCV; 300 mg/day): 1.9 ± 0.2 log10 IU/mL
Mean ± SD HCV RNA maximum change from baseline (GT1 HCV; 300 mg/day): 4.0 ± 0.4 log10 IU/mL
Mean ± SD HCV RNA change from baseline to 24 h (GT1 HCV; 600 mg/day): 2.1 ± 0.2 log10 IU/mL
Mean ± SD HCV RNA maximum change from baseline (GT1 HCV; 600 mg/day): 4.4 ± 0.7 log10 IU/mL
affinity for HCV NS5A (HCV NS5A): sub- to low-picomolar

From patent US20260091050A1, “ADVANTAGEOUS ANTI-HCV COMBINATION THERAPY” (Atea Pharmaceuticals, Inc., priority 2021, published 2026)
